Assay results: patent US10683272B2 (THE JOHNS HOPKINS UNIVERSITY, priority 2014, dated 2020)
Like-named read-outs stand apart in the source and are kept apart here. Where a SMILES comes first, the peptide text is derived from it. [ ]: non-standard residue; d: D form. The star is where a group is joined. ξ: configuration not given here. X1 = O=C(O)CC[C@H](NC(=O)N[C@@H](CCCCNC(=O)CCCCCCC(=O)*)C(=O)O)C(=O)O; DOTA = O=C(O)CN1CCN(CC(=O)O)CCN(CC(=O)*)CCN(CC(=O)O)CC1; ξF = NC(Cc1ccccc1)C(=O)O

Tests used:
[1] = molecular target: PSMA (Homo sapiens, UniProt Q04609); assay: PSMA inhibitory activities, fluorescence-based assay (Example 3); format: biochemical
Procedure: PSMA inhibitory activities were determined using a fluorescence-based assay (Banerjee, Pullambhatla, Byun, et al., 2011). Enzyme inhibitory constants (Ki values) were generated using the Cheng-Prusoff conversion (Cheng and Prusoff, 1973). Sub-lines of the androgen independent PC-3 human prostate cancer xenograft were used (Banerjee, Pullambhatla, Byun, et al., 2011). Those sub-lines have been modified to express high (PC-3 PIP) or naturally produce low (PC-3 flu) levels of PSMA (Dr. Warren Heston, Cleveland Clinic, Cleveland, Ohio).

[2] = test system: PSMA+ PIP and PSMA− flu cells; assay: cell uptake and internalization study of ^177Lu-SRVI71; format: cell-based
[3] = test system: PSMA+ PIP and PSMA− flu mouse xenografts; conditions: for uptake in PSMA+ tumor: n=4, text b326
Procedure: In vivo evaluation was performed in standard PSMA+ PIP and PSMA− flu mouse xenografts and by performing SPECT imaging with a VECT or instrument with an extra ultra-high sensitivity mouse collimator as disclosed FIG. 25A, FIG. 25B and FIG. 25C.

[4] = test system: PC-3 PIP and PC-3 flu tumors

PSMA, sequence (Q04609 whole entry): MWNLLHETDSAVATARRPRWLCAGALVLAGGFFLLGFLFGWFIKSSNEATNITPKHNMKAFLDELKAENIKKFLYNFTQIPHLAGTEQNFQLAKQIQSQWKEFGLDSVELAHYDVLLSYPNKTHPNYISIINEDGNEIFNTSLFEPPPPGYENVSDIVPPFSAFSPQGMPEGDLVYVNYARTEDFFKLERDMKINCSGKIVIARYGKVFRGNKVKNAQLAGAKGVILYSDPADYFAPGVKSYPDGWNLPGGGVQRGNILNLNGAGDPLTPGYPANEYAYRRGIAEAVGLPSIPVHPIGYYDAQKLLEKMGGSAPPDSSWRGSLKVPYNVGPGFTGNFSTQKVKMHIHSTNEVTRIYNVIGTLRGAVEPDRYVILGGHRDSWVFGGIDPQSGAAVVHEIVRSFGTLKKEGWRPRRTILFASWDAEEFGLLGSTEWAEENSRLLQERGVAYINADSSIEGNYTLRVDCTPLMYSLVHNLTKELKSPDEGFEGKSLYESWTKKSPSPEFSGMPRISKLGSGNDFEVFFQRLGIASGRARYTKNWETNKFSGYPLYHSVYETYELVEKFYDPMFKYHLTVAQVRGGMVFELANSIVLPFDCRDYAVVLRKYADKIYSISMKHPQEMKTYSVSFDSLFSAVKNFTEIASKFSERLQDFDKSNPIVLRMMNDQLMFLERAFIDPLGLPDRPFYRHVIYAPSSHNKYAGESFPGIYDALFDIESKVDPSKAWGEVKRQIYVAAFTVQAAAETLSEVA

## O=C(O)CC[C@H](NC(=O)N[C@@H](CCCCNC(=O)CCCCCCC(=O)NCCCC[C@H](NC(=O)C(Cc1ccccc1)NC(=O)C(Cc1ccccc1)NC(=O)C(Cc1ccccc1)NC(=O)CN1CCN(CC(=O)O)CCN(CC(=O)O)CCN(CC(=O)O)CC1)C(=O)O)C(=O)O)C(=O)O (stereo partly shown) [Compound 5]
[1]
  Ki: 3.12 nM

## O=C(O)CC[C@H](NC(=O)N[C@@H](CCCCNC(=O)CCCCCCC(=O)NCCCCNC(=S)Nc1ccc(CC2CN(CC(=O)O)CCN(CC(=O)O)CCN(CC(=O)O)CCN2CC(=O)O)cc1)C(=O)O)C(=O)O (stereo partly drawn) [Compound 6, (21S,25S)-8,15,23-trioxo-1-((4-((1,4,7,10-tetrakis(carboxymethyl)-1,4,7,10-tetraazacyclododecan-2-yl)methyl)phenyl)amino)-1-thioxo-2,7,16,22,24-pentaazaheptacosane-21,25,27-tricarboxylic acid]
[1]
  Ki: 1.8 nM

## O=C([O-])CN1CCN(CC(=O)[O-])CCN(CC(=O)NC(Cc2ccccc2)C(=O)NC(Cc2ccccc2)C(=O)N[C@@H](CCCCNC(=O)CCCCCCC(=O)NCCCC[C@H](NC(=O)N[C@@H](CCC(=O)O)C(=O)O)C(=O)O)C(=O)O)CCN(CC(=O)[O-])CC1.[Y+3] (stereo partly shown) [^89Y-4]
[1]
  Ki: 0.36 nM

## O=C([O-])CN1CCN(CC(=O)[O-])CCN(CC(=O)NC(Cc2ccccc2)C(=O)NC(Cc2ccccc2)C(=O)NC(Cc2ccccc2)C(=O)N[C@@H](CCCCNC(=O)CCCCCCC(=O)NCCCC[C@H](NC(=O)N[C@@H](CCC(=O)O)C(=O)O)C(=O)O)C(=O)O)CCN(CC(=O)[O-])CC1.[Y+3] (stereo partly shown) [^89Y-5] ({DOTA}-[ξF][ξF][ξF]K(X1)-OH)
[1]
  Ki: 0.1 nM

## O=C([O-])CN1CCN(CC(=O)O)CCN(CC(=O)[O-])CC(Cc2ccc(NC(=S)NCCCCNC(=O)CCCCCCC(=O)NCCCC[C@H](NC(=O)N[C@@H](CCC(=O)O)C(=O)O)C(=O)O)cc2)N(CC(=O)[O-])CC1.[Y+3] (stereo partly shown) [^89Y-6]
[1]
  Ki: 2.99 nM

## O=C([O-])CN1CCN(CC(=O)[O-])CCN(CC(=O)[O-])C(Cc2ccc(NC(=S)NCCCCNC(=O)CCCCCCC(=O)NCCCC[C@H](NC(=O)N[C@@H](CCC(=O)O)C(=O)O)C(=O)O)cc2)CN(CC(=O)[O-])CC1.[177Lu+3] (stereo partly shown) [^177Lu-SR-VI-71]
[2]; 0.01-10 μCi, PSMA+ PIP vs PSMA− flu
  cell uptake: high uptake in PSMA+ PIP and negligible uptake in PSMA− flu tumor
[2]; co-incubation of 10 μM of ZJ43
  blockade of uptake in PSMA+ cells: ~90%
[2]; internalization study
  fraction of total cell associated radioactivity internalized: ~44%
[3]; 2 h
  PIP:flu ratio: ~180
  kidney uptake: 89.3±28.9%
  uptake in PSMA+ tumor: 59.1±12.8 % ID/g
[3]; 3 h
  Tissue biodistribution, Blood: 0.14 ± 0.04
  Tissue biodistribution, Flu tumor: 0.14 ± 0.03
  Tissue biodistribution, PIP tumor: 41.46 ± 7.88
  Tissue biodistribution, SI: 0.23 ± 0.12
  Tissue biodistribution, heart: 0.09 ± 0.04
  Tissue biodistribution, kidney: 53.66 ± 9.64
  Tissue biodistribution, liver: 0.31 ± 0.25
  Tissue biodistribution, lung: 0.62 ± 0.31
  Tissue biodistribution, muscle: 0.24 ± 0.14
  Tissue biodistribution, salivary gland: 0.42 ± 0.09
  Tissue biodistribution, spleen: 1.83 ± 0.38
[3]; 24 h
  Tissue biodistribution, Blood: 0.03 ± 0.03
  Tissue biodistribution, Flu tumor: 0.09 ± 0.01
  Tissue biodistribution, PIP tumor: 27.52 ± 1.19
  Tissue biodistribution, SI: 0.10 ± 0.05
  Tissue biodistribution, heart: 0.04 ± 0.00
  Tissue biodistribution, kidney: 4.35 ± 0.41
  Tissue biodistribution, liver: 0.38 ± 0.35
  Tissue biodistribution, lung: 0.25 ± 0.026
  Tissue biodistribution, muscle: 0.04 ± 0.00
  Tissue biodistribution, salivary gland: 0.07 ± 0.08
  Tissue biodistribution, spleen: 0.74 ± 0.64
  kidney uptake: 6.29±3.4 % ID/g
  uptake in PSMA+ tumor: 40.6±5.8 ID/g
[3]; 48 h
  Tissue biodistribution, Blood: 0.03 ± 0.03
  Tissue biodistribution, Flu tumor: 0.05 ± 0.00
  Tissue biodistribution, PIP tumor: 16.99 ± 2.65
  Tissue biodistribution, SI: 0.04 ± 0.01
  Tissue biodistribution, heart: 0.02 ± 0.00
  Tissue biodistribution, kidney: 2.35 ± 0.62
  Tissue biodistribution, liver: 0.11 ± 0.07
  Tissue biodistribution, lung: 0.06 ± 0.04
  Tissue biodistribution, muscle: 0.02 ± 0.00
  Tissue biodistribution, salivary gland: 0.10 ± 0.04
  Tissue biodistribution, spleen: 0.17 ± 0.05
[3]; 72 h
  Tissue biodistribution, Blood: 0.01 ± 0.01
  Tissue biodistribution, Flu tumor: 0.04 ± 0.00
  Tissue biodistribution, PIP tumor: 15.63 ± 4.62
  Tissue biodistribution, SI: 0.05 ± 0.03
  Tissue biodistribution, heart: 0.03 ± 0.01
  Tissue biodistribution, kidney: 2.59 ± 1.10
  Tissue biodistribution, liver: 0.05 ± 0.03
  Tissue biodistribution, lung: 0.03 ± 0.02
  Tissue biodistribution, muscle: 0.01 ± 0.01
  Tissue biodistribution, salivary gland: 0.09 ± 0.04
  Tissue biodistribution, spleen: 0.09 ± 0.08
[3]; 96 h
  Tissue biodistribution, Blood: 0.00 ± 0.00
  Tissue biodistribution, Flu tumor: 0.03 ± 0.0
  Tissue biodistribution, PIP tumor: 9.04 ± 1.72
  Tissue biodistribution, SI: 0.01 ± 0.00
  Tissue biodistribution, heart: 0.01 ± 0.00
  Tissue biodistribution, kidney: 1.44 ± 0.11
  Tissue biodistribution, liver: 0.04 ± 0.0
  Tissue biodistribution, lung: 0.05 ± 0.01
  Tissue biodistribution, muscle: 0.01 ± 0.0
  Tissue biodistribution, salivary gland: 0.06 ± 0.02
  Tissue biodistribution, spleen: 0.06 ± 0.03

## NC(=O)CN1CCN(CC(N)=O)CCN(CC(N)=O)C(Cc2ccc(NC(=S)NCCCCNC(=O)CCCCCCC(=O)NCCCC[C@H](NC(=O)N[C@@H](CCC(=O)O)C(=O)O)C(=O)O)cc2)CN(CC(N)=O)CC1.[203Pb+2] (stereo partly shown) [^203Pb-SR-IX-11]
[4]; 2 H
  PIP/flu ratio: 114
  Tissue biodistribution, Blood: 0.07 ± 0.01
  Tissue biodistribution, PC-3 PIP: 21.64 ± 1.23
  Tissue biodistribution, PC-3 flu: 0.19 ± 0.04
  Tissue biodistribution, Sm intestine: 0.25 ± 0.15
  Tissue biodistribution, bladder: 8.64 ± 0.77
  Tissue biodistribution, fat: 1.54 ± 1.64
  Tissue biodistribution, heart: 0.07 ± 0.01
  Tissue biodistribution, kidney: 3.61 ± 0.81
  Tissue biodistribution, liver: 0.21 ± 0.01
  Tissue biodistribution, lung: 0.24 ± 0.03
  Tissue biodistribution, muscle: 0.78 ± 0.83
  Tissue biodistribution, pancreas: 0.06 ± 0.00
  Tissue biodistribution, salivary gland: 0.35 ± 0.10
  Tissue biodistribution, spleen: 0.25 ± 0.1
  Tissue biodistribution, stomach: 0.12 ± 0.00

## O=C(O)CC[C@H](NC(=O)N[C@@H](CCCCNC(=O)CCCCCCC(=O)NCCCCNC(=S)Nc1ccc(CC2CN(CC(=O)O)CCN(CC(=O)O)CCN(CC(=O)O)CCN2CC(=O)O)cc1)C(=O)O)C(=O)O.[203Pb+2] (stereo partly shown) [^203Pb-SR-VI-71]
[4]; 1 H
  PIP/flu ratio: 98
  Tissue biodistribution, Blood: 0.60 ± 0.05
  Tissue biodistribution, PC-3 PIP: 41.88 ± 7.60
  Tissue biodistribution, PC-3 flu: 0.43 ± 0.11
  Tissue biodistribution, Sm intestine: 0.31 ± 0.05
  Tissue biodistribution, bladder: 5.96 ± 2.24
  Tissue biodistribution, fat: 0.77 ± 0.29
  Tissue biodistribution, heart: 0.30 ± 0.03
  Tissue biodistribution, kidney: 75.18 ± 9.94
  Tissue biodistribution, liver: 1.09 ± 0.07
  Tissue biodistribution, lung: 1.20 ± 0.19
  Tissue biodistribution, muscle: 0.22 ± 0.14
  Tissue biodistribution, pancreas: 0.49 ± 0.09
  Tissue biodistribution, salivary gland: 1.78 ± 0.69
  Tissue biodistribution, spleen: 5.07 ± 1.68
  Tissue biodistribution, stomach: 0.30 ± 0.04
[4]; 2 H
  PIP/flu ratio: 130
  Tissue biodistribution, Blood: 0.31 ± 0.04
  Tissue biodistribution, PC-3 PIP: 38.14 ± 6.30
  Tissue biodistribution, PC-3 flu: 0.29 ± 0.14
  Tissue biodistribution, Sm intestine: 0.23 ± 0.04
  Tissue biodistribution, bladder: 10.40 ± 3.21
  Tissue biodistribution, fat: 0.31 ± 0.22
  Tissue biodistribution, heart: 0.14 ± 0.06
  Tissue biodistribution, kidney: 39.35 ± 7.28
  Tissue biodistribution, liver: 1.01 ± 0.21
  Tissue biodistribution, lung: 0.64 ± 0.14
  Tissue biodistribution, muscle: 0.22 ± 0.07
  Tissue biodistribution, pancreas: 0.29 ± 0.05
  Tissue biodistribution, salivary gland: 0.93 ± 0.07
  Tissue biodistribution, spleen: 1.59 ± 0.58
  Tissue biodistribution, stomach: 0.15 ± 0.03
[4]; 4 H
  PIP/flu ratio: 178
  Tissue biodistribution, Blood: 0.24 ± 0.02
  Tissue biodistribution, PC-3 PIP: 34.74 ± 7.37
  Tissue biodistribution, PC-3 flu: 0.20 ± 0.06
  Tissue biodistribution, Sm intestine: 0.15 ± 0.04
  Tissue biodistribution, bladder: 1.94 ± 0.49
  Tissue biodistribution, fat: 0.31 ± 0.18
  Tissue biodistribution, heart: 0.09 ± 0.01
  Tissue biodistribution, kidney: 22.75 ± 6.22
  Tissue biodistribution, liver: 0.92 ± 0.09
  Tissue biodistribution, lung: 0.28 ± 0.04
  Tissue biodistribution, muscle: 0.06 ± 0.02
  Tissue biodistribution, pancreas: 0.24 ± 0.05
  Tissue biodistribution, salivary gland: 0.29 ± 0.02
  Tissue biodistribution, spleen: 0.72 ± 0.16
  Tissue biodistribution, stomach: 0.13 ± 0.03
[4]; 24 H
  PIP/flu ratio: 194
  Tissue biodistribution, Blood: 0.21 ± 0.02
  Tissue biodistribution, PC-3 PIP: 27.92 ± 7.01
  Tissue biodistribution, PC-3 flu: 0.14 ± 0.01
  Tissue biodistribution, Sm intestine: 0.04 ± 0.03
  Tissue biodistribution, bladder: 0.31 ± 0.16
  Tissue biodistribution, fat: 0.05 ± 0.06
  Tissue biodistribution, heart: 0.07 ± 0.01
  Tissue biodistribution, kidney: 7.01 ± 0.80
  Tissue biodistribution, liver: 0.64 ± 0.04
  Tissue biodistribution, lung: 0.16 ± 0.01
  Tissue biodistribution, muscle: 0.04 ± 0.03
  Tissue biodistribution, pancreas: 0.09 ± 0.06
  Tissue biodistribution, salivary gland: 0.10 ± 0.05
  Tissue biodistribution, spleen: 0.24 ± 0.02
  Tissue biodistribution, stomach: 0.07 ± 0.01
